Drawing on a melting point compilation (Tetko et al.; mined from patent text by program, amines drawn as free bases though some values may be those of a salt), this text covers melting point for 89 compounds.

Non-standard residues stand in square brackets, D forms with d. Residues, ends and D or L forms follow the SMILES beside them. Hyp = O=C(O)[C@@H]1C[C@@H](O)CN1

Compound `CC(C)N(CCC(CCN1CCCC1)(C(N)=O)c1ccccc1)C(C)C` (centres undefined) registered a melting point of 79 to 80 °C. The compound `COC(=O)c1cc(CC(C)NCC(O)c2ccc(O)c(CO)c2)ccc1O` (centres undefined) came in with a melting point of 65 to 69 °C.

Turning to `CCOC(=O)CCCn1cc(C(=O)O)c2nc3c(C)cccc3cc2c1=O`, the melting point lay in the range of 186 to 188 °C.

Regarding `CC1c2ccccc2N(CCN2CC=C(c3c[nH]c4cc(F)ccc34)CC2)S(=O)(=O)N1C` (centres undefined), the melting point was in the range of 105 to 108 °C. To `CCOc1ccc2nc(N)c3nc4n(c3c2c1)C(C)COC4` (centres undefined) belongs 187 to 188 °C; to `COc1ccc(C(Cc2ccc(OCCc3nc(-c4ccccc4)oc3C)cc2)C(=O)O)cc1` (centres undefined), 115 to 117 °C.

In the case of `COC(=O)C(O)C(CC(C)C)NC(=O)C(Cc1c[nH]cn1)NC(=O)C(CC(=O)N(C)C)Cc1cccc2ccccc12` (mixture of isomers), the melting point was 117 to 121 °C. To `COC(=O)Cc1cc(Cl)c2c(c1)CCC(c1ccccc1)N2C` (centres undefined) belongs 78 to 80 °C. `COC(=O)c1ccc(CN(C(C)C)S(=O)(=O)c2ccc(F)cc2)cc1` returned a melting point of 118 to 120 °C.

`O=C1NS(=O)(=O)c2cc(O)cc(O)c21` displayed a melting point of 286 °C.

With `CC1(C)Oc2ccc(C#N)cc2[C@@H](O)[C@@H]1Br` (relative stereo), the melting point is 128 °C. `O=C(Nc1ccc(Br)cc1)Nc1cc(C(F)(F)F)ccc1Oc1ccccc1C(=O)O` showed a melting point of 229 to 231 °C.

`COC(=O)NCCCn1c(-c2ccc(OC)cc2)csc1=Nc1ccccc1`: the melting point fell in the range of 106 to 108 °C. As to `CCOC(=O)C1(CS(=O)(=O)c2ccc(OC)cc2)CO1` (centres undefined), the melting point lay in the range of 77 to 79 °C.

The compound `COc1ncc(C(F)(F)F)cc1-c1cccn2nc(Nc3ccc(C4CCNCC4)cc3)nc12` gave a melting point of 106 to 108 °C. For the compound `CCN(CC)CCOC(=O)C1=C(C)NC(C)=C(c2nnco2)C1c1cccc(Cl)c1Cl` (centres undefined), the melting point was in the range of 142 to 144 °C. The compound `COC(=O)c1cc(Cl)c(Oc2ccc(O)cc2)c(Cl)c1` showed a melting point of 152 to 155 °C. `COc1cc2c3c(nc4ccccc4c3c1)-c1ccc(Cl)cc1N2` showed a melting point of 240 to 242 °C. On to `CCOC(=O)c1ccc(C(=O)OCC)nc1`, for which the melting point lay within 46 to 47 °C. Turning to `Cc1nc(-n2ccc(NCc3ccccc3)cc2=O)sc1C(=O)NCc1ccccc1`, the melting point lay in the range of 253 to 255 °C. `CCCCCC(=O)NCc1ccco1` gave a melting point of 54 to 55 °C.

Compound `O=C(O)CCCCCCCCCCNC(=O)C(CS)Cc1ccccc1` (centres undefined) came in with a melting point of 104 to 105 °C. In turn, `C=C(Cc1ccc(OC)cc1)C(=O)O` showed a melting point of 88 to 91 °C. For `COc1ccc(C=C2C(=O)c3cc(O)ccc3OC2c2ccc(OC)cc2)cc1` (centres undefined), the melting point was in the range of 199 to 201 °C. In the case of `CCCCCCCCCCCCCC1CC(=O)NCCCNCCCCN1` (centres undefined), the melting point fell in the range of 72 to 73 °C.

Compound `CCc1ccc(-c2ccc(NC(=O)OC(C)(C)C)c([N+](=O)[O-])c2)cc1` had a melting point of 94 to 99 °C. Compound `O=C(O)[C@H](Cc1ccccc1)NS(=O)(=O)c1ccc2c(c1)Sc1ccccc1O2` showed a melting point of 120 to 130 °C.

`CCCCC(=O)OC1C=CC(OC(=O)CCCC)O1` (centres undefined) had a melting point of 30 to 35 °C. As for `OCc1nccn1CCc1ccccc1`, the melting point worked out at 75.4 °C. The figure for `CCOC(=O)c1cc2ccc(Cl)c(NS(=O)(=O)c3cccs3)c2[nH]1` is 191 to 192 °C; for `CCOC(=O)CC(=Nc1cc([N+](=O)[O-])ccc1Cl)OC` it is 60 to 62 °C; for `O=C(Nc1nnn[nH]1)c1cnc2sc3ccc(Cl)cc3n2c1=O` it is > 300 °C.

In turn, `CCCc1ccc(S(=O)(=O)Nc2ccc3snc(NC(C)=O)c3c2)cc1` had a melting point of 254 to 255 °C.

As to `Cc1cc(Oc2c(Cl)cc(C(F)(F)F)cc2[N+](=O)[O-])n[nH]1`, the melting point was in the range of 120 to 123 °C. Compound `CCCN(CCC)S(=O)(=O)c1cccc(C(=O)Nc2cccc(Br)c2)c1` had a melting point of 105 to 107 °C. For the compound `CCN(C(C)=O)c1cccc(-c2ccc3nncn3n2)c1`, the melting point lay in the range of 122 to 127 °C.

In turn, `C=CCN1CCc2nc(NCC)nc(-c3ccc(Cl)cc3)c2C1` gave a melting point of 104 to 106 °C. The figure for `CN(Cc1cc2c3c(c1)c(=O)c(C(=O)NCc1ccc(F)cc1)cn3CC(=O)N2C)C[C@@H](O)c1ccco1` is 150 to 152 °C; for `Cc1nccc2c3ccc(OCc4ccc(F)cc4)cc3n(Cc3ccc(F)cc3)c12` it is 175 °C; for `CCn1c(=O)c2[nH]c(/C=C/c3cccc(Cl)c3)nc2n(CC)c1=O` it is > 280 °C.

Regarding `COc1ccc(S(=O)(=O)C2(C(=O)NO)CCN(C(C)(C)C)CC2)cc1`, the melting point was 40 °C.

In the case of `CCc1c(OC)nc(OC)nc1C(=O)c1cc(C)cc(CO)c1`, the melting point was 101 to 103 °C. `COc1cc(NC(=O)n2cc(F)c(=O)[nH]c2=O)cc(OC)c1OC` displayed a melting point of 168 to 170 °C. For `CN(C)c1ccc(-c2cc3ncc(C#N)c(Cl)c3s2)cc1`, the melting point fell in the range of 270 to 272 °C. Compound `O=[N+]([O-])c1cc(C(F)(F)F)cc([N+](=O)[O-])c1Nc1c(Cl)cncc1Cl` had a melting point of 138 to 140 °C. Compound `Cn1nc(Cl)c(C(=O)OC2COC2)c1S(N)(=O)=O` came in with a melting point of 145 to 147 °C. Regarding `CC(C)(C)OC(=O)NC(CC(=O)NCCC(=O)OCc1ccccc1)C(=O)NCCC(=O)OCc1ccccc1` (centres undefined), the melting point lay within 109 to 110 °C. For the compound `O=C1Cc2cc(Oc3ccccc3Cl)ccc2N1`, the melting point is 139 to 140 °C.

As to `CC(C)c1ccc(C(=O)C2c3ccccc3Oc3ccccc32)c(C(C)C)c1OS(N)(=O)=O`, the melting point lay in the range of 180 to 181 °C. For `Cc1ccc(OCCCN2CCC(Cc3ccc4ccccc4n3)CC2)c2c1NC(=O)C2(C)C`, the melting point is 150 to 151 °C.

`O=C(O)c1ccccc1OCCCc1cc(-c2ccc(C(F)(F)F)cc2)no1`: the melting point lay in the range of 132 to 133 °C. To `COc1cc(Cl)c2c(=O)c(Br)coc2c1` belongs 176 to 177 °C; to `CCC[C@H](NC(=O)Cc1cc(F)cc(F)c1)C(=O)Nc1ncc(-c2ccc(OC)cc2COC(C)C)s1`, 73.9 °C; to `Clc1cc(Cl)c2c(c1)CCC(c1ccccc1)O2` (centres undefined), 74 to 76 °C.

For `S=C=NCCC1CC(c2ccccc2)=NO1` (centres undefined), the melting point was in the range of 54 to 56 °C.

Compound `O=C(c1ccccc1)N1CCc2nnc(NN=C3CCCCC3)cc2C1` had a melting point of 188 to 191 °C. As to `NCC(=O)N1C[C@H](O)C[C@H]1C(=O)N[C@@H](CCC(=O)O)C(=O)O` (H-Gly-[Hyp]-Glu-OH), the melting point is 158 to 160 °C. As to `COc1cc2c(cc1OC)CC(N(CC(=O)O)C(=O)C(C)CSC(C)=O)C2` (centres undefined), the melting point was in the range of 135 to 137 °C. The figure for `Cc1c(NCCO)c(F)cc2c(=O)c(C(=O)O)cn(-c3cc(N)c(F)cc3F)c12` is 166 to 168 °C; for `O=C(CO)Cc1ccccc1` it is 42 to 43 °C. To `O=C1NC(=O)C(Cc2ccc(OC[C@@H]3CCCN3c3ccc4ccccc4n3)cc2)S1` (some centres undefined) belongs 81 to 83 °C.

`Cc1c(C(=O)c2ccc(F)cc2)c(C)n(C)c1C(=O)c1cccnc1` registered a melting point of 85 to 88 °C.

In the case of `ClC1=NC(Cl)(c2ccc(Cl)cc2)NC=N1` (centres undefined), the melting point lay in the range of 142 to 143 °C. `O=C1C(=O)N(C(c2ccccc2)c2ccccc2)c2cccc(F)c21`: the melting point lay in the range of 168 to 171 °C.

For the compound `Cc1cc(=O)[nH]c2ccc(OCCCN3CCN(Cc4ccc(Cl)cc4)CC3)cc12`, the melting point was in the range of 195 to 197 °C. `O=c1nc2c(c3ncnn13)=NC(c1ccccc1)=N2`: the melting point was > 300 °C. In turn, `COc1cc(C=C(C=O)C(C=O)=Cc2ccc(OC(C)C)c(OC)c2)ccc1OC(C)C` yielded a melting point of 119 to 120 °C. The figure for `CCCCCCC(C(=O)O)c1cccc(Sc2ccccc2C)c1O` (centres undefined) is 90 to 91 °C; for `Cc1nc(N)nc(N)c1-c1c(Cl)cccc1Cl` it is 250 °C; for `CCOC(=O)Nc1coc2cc(OCc3ccccc3)ccc12` it is 140 °C. `O=C1NC(=O)C(Nc2ccc(CCNCC(O)COc3ccc4ccccc4c3)cc2)S1` (centres undefined) yielded a melting point of 90 to 91 °C. As to `N#Cc1ccc2c(c1)Sc1ccc(N)cc1C=C2`, the melting point was in the range of 181 to 183 °C.

Turning to `Cc1nc2c(cc1C(=O)N(C(=N)N)C(=O)OC(C)(C)C)CCCCC2CO` (centres undefined), the melting point was 98 to 100 °C. Turning to `CC1NC(=O)N(C)N=C1c1ccccc1` (centres undefined), the melting point is 99.5 to 101 °C. Regarding `CC(Br)c1ccc2c(=O)c3ccccc3ccc2c1` (centres undefined), the melting point is 93 to 95 °C. With `Cc1nc(Oc2ccc(F)cc2)cc(Oc2ccc(F)cc2)n1`, the melting point is 93 to 97 °C. Take `CON=CC1=CCCN(C(=O)OCCc2ccc([N+](=O)[O-])cc2)C1`: the melting point lay in the range of 93 to 94 °C. `Cc1cc(Cl)ccc1OC(Cn1cncn1)C(O)C(C)(C)C` (centres undefined): the melting point lay in the range of 124 to 126 °C. For `O=[N+]([O-])c1ccc(N(CCBr)S(=O)(=O)c2ccccc2)cc1`, the melting point came out at 168 °C. The compound `CCOc1ccc(-c2ccc(OC(CC)CCN3CCN(c4cncs4)CC3)cc2)cc1` (centres undefined) came in with a melting point of 149 to 150 °C. `COc1ccc(N(CCCC(=O)O)C(=O)C(C)N(C(=O)c2cccc(C(F)(F)F)c2)c2ccc(OC)cc2)cc1` (centres undefined) came in with a melting point of 119 to 121 °C.

For the compound `COc1ccc(C(=O)N2C(=O)CCC2CCC(=O)OCc2ccccc2)cc1` (centres undefined), the melting point is 80 to 83 °C. To `CCC(=O)NCC1CCN(CCOc2ccccc2)CC1` belongs 85 to 86 °C. The figure for `CC(C)(C)OC(=O)NNc1cccc([N+](=O)[O-])c1` is 105 °C; for `Cc1ccc(-c2nn(CCO)c(=O)c(-c3ccccc3)c2-c2ccc(C)cc2)cc1` it is 192 to 194 °C; for `COc1ccc(OC)c(C(=O)c2ccc(OCc3ccccc3)cc2)c1` it is 111 to 113 °C. The figure for `CCCCN(Cc1ccccc1)C(=O)Nc1ccc(C)cc1C` is 70 to 71 °C. `NCCCCCCc1ccc(C2=NNC(=O)CC2)cc1` displayed a melting point of 153 to 154 °C.

The compound `CC(=O)N[C@@H](C)COC1CCN(c2nc3ccc(OCC4CC4)cc3o2)CC1` yielded a melting point of 120 °C.

In general, melting point refers to the temperature of the solid-liquid transition.
